With `CC(C)n1c(=O)n(C(=O)NCC2CCN(CC3(C(=O)O)CCOCC3)CC2)c2ccccc21` [Example 1, 4-{[4-({[(3-isopropyl-2-oxo-2,3-dihydro-1H-benzimidazol-1-yl)carbonyl]amino}methyl)piperidin-1-yl]methyl}tetrahydro-2H-pyran-4-carboxylic acid], the melting point (in general, the temperature, or range, at which the solid turns liquid) came to 176 °C. To `CC(C)n1c(=O)n(C(=O)NCC2CCN(CC3(C(=O)O)CCCC3)CC2)c2ccccc21` [Example 3, 1-{[4-({[(3-isopropyl-2-oxo-2,3-dihydro-1H-benzimidazol-1-yl)carbonyl]amino}methyl)piperidin-1-yl]methyl}cyclopentanecarboxylic acid] belongs 165 °C. To `CC(C)n1c(=O)n(C(=O)NCC2(O)CCN(CC3(C(=O)O)CCCCC3)CC2)c2ccccc21` [Example 6, 1-{[4-hydroxy-4-({[(3-isopropyl-2-oxo-2,3-dihydro-1H-benzimidazol-1-yl)carbonyl]amino}methyl)piperidin-1-yl]methyl}cyclohexanecarboxylic acid] belongs 184 °C. Next, `CC(C)n1c(=O)n(C(=O)NCC2CCN(CC3(C(=O)O)CCCCC3)CC2)c2ccccc21` [Example 2, 1-{[4-({[(3-isopropyl-2-oxo-2,3-dihydro-1H-benzimidazol-1-yl)carbonyl]amino}methyl)piperidin-1-yl]methyl}cyclohexanecarboxylic acid]: 151 °C; `CC(C)n1c(=O)n(C(=O)NCC2CCN(CC3(C(=O)O)CC3)CC2)c2ccccc21.Cl`: 206 °C.

These data come from US7595329B2, “Benzimidazolone carboxylic acid derivatives” (Pfizer Inc, priority 2004, dated 2009).
